Assay results: patent publication US7897620B2, “Methods of using anti-inflammatory compounds” (Cambridge Enterprise Limited, priority 2007, dated 2011)

System: RANTES induced THP-1 cell migration
Assay: ChemoTx transwell migration assay, RANTES induced migration of THP-1 cells
Format: cell-based
Conditions: Homo sapiens, maximal dose of chemoattractant, read-out: ED50 RANTES
Description: In principle, this assay consists of two chambers separated by a porous membrane. The chemoattractant is placed in the lower compartment and the cells are placed in the upper compartment. After incubation for a period at 37° C. the cells move towards the chemoattractant, and the number of cells in the lower compartment is proportional to the chemoattractant activity (relative to a series of controls).
The THP-1 cell line (European Cell Culture Collection) were used as the leukocyte cell population.
First, the cell suspension to be placed in the upper compartment is prepared. The THP-1 cells are pelleted by centrifugation (770×g; 4 mins) and washed with Geys Balanced Salt Solution with 1 mg/ml BSA (GBSS+BSA). This wash is then repeated, and the cells repelleted before being resuspended in a small volume of GBSS+BSA for counting, for example using a standard haemocytometer.
The volume of GBSS+BSA is then adjusted depending on the number of cells present so that the cells are at final density of 4.45×10^6 cells per ml of GBSS+BSA. This ensures that there are […] THP-1 cells in each 25 μl of the solution that will be placed in the upper chamber of the plate.
To test a single compound for its ability to inhibit chemokine induced migration, it is necessary to prepare two lots of cells. The suspension of THP-1 cells at 4.45×10^6 cells/ml is divided into two pots. […]

## O=C1NCCCC[C@@H]1NC(=O)C12CC3CC(CC(C3)C1)C2 [(II), 3-(adamantane-1-carbonylamino)-caprolactam]
  EC50: 0.1 nM
